Source: patent US10618918B2, “Substituted boronic acids as antimicrobials” (priority 2015, dated 2020)
Like-named read-outs stand apart in the source and are kept apart here.

Tests used:
KP1004 KPC-2 [1] = experiment: Biapenem potentiation (MPC@1), strain KP1004 KPC-2; format: cell-based; details: minimum BLI concentration inhibiting growth with biapenem 1 μg/mL; tested up to 40 μg/mL
Method: (§1) Biapenem was present in the test medium at 1 μg/mL. […] Table 3 summarizes the BLI potency of biapenem potentiation (MPC@1) for two strains overexpressing class A (KPC) and class D (OXA-48) carbapenemases. Biapenem MIC for each strain is also shown.

KP1086 OXA-48 = experiment: Biapenem potentiation (MPC@1), strain KP1086 OXA-48; format: cell-based; details: minimum BLI concentration inhibiting growth with biapenem 1 μg/mL; tested up to 40 μg/mL
Method: as §1

AB1053 OXA-72 = experiment: Meropenem potentiation (MPC@8), strain AB1053 OXA-72; format: cell-based, Acinetobacter baumannii; details: minimum BLI concentration inhibiting growth with meropenem 8 μg/mL; tested up to 20 μg/mL
AB1054 OXA-23 = experiment: Meropenem potentiation (MPC@8), strain AB1054 OXA-23; format: cell-based, Acinetobacter baumannii; details: minimum BLI concentration inhibiting growth with meropenem 8 μg/mL; tested up to 20 μg/mL
[2] = target: T1, purified class A, C and D enzymes (β-lactamases) (Acinetobacter baumannii, UniProt Q9L4P2); experiment: biochemical; format: biochemical; details: purified OXA-23; nitrocefin (NCF) as reporter substrate
T1 construct: rows headed: Ki (OXA-23, NCF), uM; other: purified OXA-23; nitrocefin (NCF) as reporter substrate

[3] = target: purified class A, C and D enzymes (β-lactamases) (Enterobacter cloacae, UniProt P05364); experiment: biochemical; format: biochemical
[4] = target: purified class A, C and D enzymes (β-lactamases) (Escherichia coli, UniProt Q9L5C7); experiment: biochemical; format: biochemical; details: purified CTX-M-14; nitrocefin (NCF) as reporter substrate
[5] = target: purified class A, C and D enzymes (β-lactamases) (Klebsiella pneumoniae, UniProt Q6XEC0); experiment: biochemical; format: biochemical; details: purified OXA-48; nitrocefin (NCF) as reporter substrate
[6] = target: purified class A, C and D enzymes (β-lactamases) (Klebsiella pneumoniae, UniProt Q9F663); experiment: biochemical; format: biochemical; details: purified KPC-2; nitrocefin (NCF) as reporter substrate
[7] = target: T2, purified class A, C and D enzymes (β-lactamases) (Pseudomonas aeruginosa, UniProt P24735); experiment: biochemical; format: biochemical
T2 construct: rows headed: Ki (Pa-AmpC, NCF), uM; other: purified Pa-AmpC; nitrocefin (NCF) as reporter substrate

ECL1002 = experiment: Aztreonam potentiation (MPC@4), strain ECL1002; details: minimum BLI concentration inhibiting growth with aztreonam 4 μg/mL; tested up to 40 μg/mL
ec308 SHV-5 = experiment: Aztreonam potentiation (MPC@4), strain ec308 SHV-5; details: minimum BLI concentration inhibiting growth with aztreonam 4 μg/mL; tested up to 40 μg/mL
ec302 TEM-10 = experiment: Aztreonam potentiation (MPC@4), strain ec302 TEM-10; details: minimum BLI concentration inhibiting growth with aztreonam 4 μg/mL; tested up to 40 μg/mL
KP1004 KPC-2 [8] = experiment: Aztreonam potentiation (MPC@4), strain KP1004 KPC-2; details: minimum BLI concentration inhibiting growth with aztreonam 4 μg/mL; tested up to 40 μg/mL
EC1010 CMY-6 = experiment: Aztreonam potentiation (MPC@4), strain EC1010 CMY-6; details: minimum BLI concentration inhibiting growth with aztreonam 4 μg/mL; tested up to 40 μg/mL
KP1010 SHV-12 = experiment: Aztreonam potentiation (MPC@4), strain KP1010 SHV-12; details: minimum BLI concentration inhibiting growth with aztreonam 4 μg/mL; tested up to 40 μg/mL
KP1009 CTX-M-15 = experiment: Aztreonam potentiation (MPC@4), strain KP1009 CTX-M-15; details: minimum BLI concentration inhibiting growth with aztreonam 4 μg/mL; tested up to 40 μg/mL
KP1005 CTX-M-14 = experiment: Tigemonam potentiation (MPC@4), strain KP1005 CTX-M-14; details: minimum BLI concentration inhibiting growth with tigemonam 4 μg/mL; tested up to 40 μg/mL

T1 sequence (Q9L4P2 whole entry): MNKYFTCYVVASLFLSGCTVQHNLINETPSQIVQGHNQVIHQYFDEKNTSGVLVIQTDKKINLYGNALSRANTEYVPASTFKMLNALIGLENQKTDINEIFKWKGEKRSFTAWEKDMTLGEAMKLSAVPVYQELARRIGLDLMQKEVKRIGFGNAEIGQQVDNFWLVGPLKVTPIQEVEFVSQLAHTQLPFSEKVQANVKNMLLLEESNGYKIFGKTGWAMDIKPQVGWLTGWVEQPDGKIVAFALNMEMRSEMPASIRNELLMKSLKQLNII
Sequence of purified class A, C and D enzymes (β-lactamases) (Escherichia coli, UniProt Q9L5C7) (Q9L5C7 entry or part of it): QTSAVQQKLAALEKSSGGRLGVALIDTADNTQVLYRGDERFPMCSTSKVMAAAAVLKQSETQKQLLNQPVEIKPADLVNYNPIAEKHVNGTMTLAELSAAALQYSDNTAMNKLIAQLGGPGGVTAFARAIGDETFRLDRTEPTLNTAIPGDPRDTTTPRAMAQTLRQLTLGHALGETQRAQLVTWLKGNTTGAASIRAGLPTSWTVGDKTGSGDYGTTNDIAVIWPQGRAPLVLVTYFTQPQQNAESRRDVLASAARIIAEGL
T2 sequence (P24735 whole entry): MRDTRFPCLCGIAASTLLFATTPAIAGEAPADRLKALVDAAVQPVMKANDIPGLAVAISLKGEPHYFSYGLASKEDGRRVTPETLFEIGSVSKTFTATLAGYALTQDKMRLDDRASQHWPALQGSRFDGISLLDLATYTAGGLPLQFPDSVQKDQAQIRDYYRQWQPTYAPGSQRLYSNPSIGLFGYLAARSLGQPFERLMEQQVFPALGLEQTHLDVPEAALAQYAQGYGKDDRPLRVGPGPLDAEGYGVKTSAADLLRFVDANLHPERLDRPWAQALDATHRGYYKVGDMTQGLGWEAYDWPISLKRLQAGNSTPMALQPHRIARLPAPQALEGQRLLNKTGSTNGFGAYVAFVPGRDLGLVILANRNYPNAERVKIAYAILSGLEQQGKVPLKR
Sequence of purified class A, C and D enzymes (β-lactamases) (Enterobacter cloacae, UniProt P05364) (P05364 21-381): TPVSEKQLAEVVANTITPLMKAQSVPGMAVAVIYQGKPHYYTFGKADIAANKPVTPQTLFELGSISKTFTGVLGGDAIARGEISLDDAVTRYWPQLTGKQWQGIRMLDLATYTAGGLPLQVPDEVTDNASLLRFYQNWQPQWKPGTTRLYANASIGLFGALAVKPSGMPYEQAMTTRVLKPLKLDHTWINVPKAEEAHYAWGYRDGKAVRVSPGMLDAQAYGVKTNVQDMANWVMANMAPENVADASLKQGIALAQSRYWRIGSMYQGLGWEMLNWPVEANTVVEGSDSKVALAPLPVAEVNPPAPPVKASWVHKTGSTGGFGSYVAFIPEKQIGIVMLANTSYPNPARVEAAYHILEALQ

O=C([O-])c1c(CO)ccc2c1O[B-](O)(O)CC2.[Na+].[Na+] [Compound 49, Disodium; 4,4-dihydroxy-8-(hydroxymethyl)-5-oxa-4-boranuidabicyclo[4.4.0]deca-1(6),7,9-triene-7-carboxylate]
BPM MPC1 KP1004 KPC-2 (KP1004 KPC-2 [1]): X (X = MPC@1 ≤ 5 μg/mL)
BPM MPC1 OXA-48 KP1086 (KP1086 OXA-48): X (X = MPC@1 ≤ 5 μg/mL)
MPM MPC8 AB1053 OXA-72 (AB1053 OXA-72): Y (Y = 5 μg/mL < MPC@1 ≤ 20 μg/mL)
MPM MPC8 AB1054 OXA-23 (AB1054 OXA-23): Y (Y = 5 μg/mL < MPC@1 ≤ 20 μg/mL)
Ki [2]: < 100 nM
Ki (P99, NCF), uM [3]: X (key: X = Ki ≤ 0.1 μM; Y = 0.1 μM < Ki ≤ 1 μM; Z = Ki > 1 μM)
Ki (CTX-M-14, NCF), uM [4]: X (X = Ki ≤ 0.1 μM)
Ki (OXA-48, NCF), uM [5]: X (X = Ki ≤ 0.1 μM)
Ki (KPC-2, NCF), uM [6]: X (X = Ki ≤ 0.1 μM)
Ki [7]: < 100 nM
AZT MPC4 ECL1002 (ECL1002): X (X = MPC@4 ≤ 5 μg/mL)
AZT MPC4 SHV-5 ec308 (ec308 SHV-5): X (X = MPC@4 ≤ 5 μg/mL)
AZT MPC4 TEM-10 ec302 (ec302 TEM-10): X (X = MPC@4 ≤ 5 μg/mL)
AZT MPC4 KPC-2 KP1004 (KP1004 KPC-2 [8]): X (X = MPC@4 ≤ 5 μg/mL)
AZT MPC4 CMY-6 EC1010 (EC1010 CMY-6): X (X = MPC@4 ≤ 5 μg/mL)
AZT MPC4 SHV-12 KP1010 (KP1010 SHV-12): X (X = MPC@4 ≤ 5 μg/mL)
AZT MPC4 CTX-M-15 KP1009 (KP1009 CTX-M-15): X (X = MPC@4 ≤ 5 μg/mL)
TIG MPC4 CTX-M-14 KP1005 (KP1005 CTX-M-14): X (X = MPC@4 ≤ 5 μg/mL)

O=C([O-])c1cncc2c1O[B-](O)(O)CC2.[Na+].[Na+] [Compound 59, Disodium; 4,4-dihydroxy-5-oxa-9-aza-4-boranuidabicyclo[4.4.0]deca-1(6),7,9-triene-7-carboxylate]
BPM MPC1 KP1004 KPC-2 (KP1004 KPC-2 [1]): X (X = MPC@1 ≤ 5 μg/mL)
BPM MPC1 OXA-48 KP1086 (KP1086 OXA-48): X (X = MPC@1 ≤ 5 μg/mL)
MPM MPC8 AB1053 OXA-72 (AB1053 OXA-72): Y (Y = 5 μg/mL < MPC@1 ≤ 20 μg/mL)
MPM MPC8 AB1054 OXA-23 (AB1054 OXA-23): Z (Z = MPC@1 > 20 μg/mL)
Ki [2]: > 1000 nM
Ki (P99, NCF), uM [3]: Z (key: X = Ki ≤ 0.1 μM; Y = 0.1 μM < Ki ≤ 1 μM; Z = Ki > 1 μM)
Ki (CTX-M-14, NCF), uM [4]: X (X = Ki ≤ 0.1 μM)
Ki (OXA-48, NCF), uM [5]: X (X = Ki ≤ 0.1 μM)
Ki (KPC-2, NCF), uM [6]: X (X = Ki ≤ 0.1 μM)
Ki [7]: 100 to 1000 nM
AZT MPC4 ECL1002 (ECL1002): Z (Z = MPC@4 > 20 μg/mL)
AZT MPC4 SHV-5 ec308 (ec308 SHV-5): Y (Y = 5 μg/mL < MPC@4 ≤ 20 μg/mL)
AZT MPC4 TEM-10 ec302 (ec302 TEM-10): X (X = MPC@4 ≤ 5 μg/mL)
AZT MPC4 KPC-2 KP1004 (KP1004 KPC-2 [8]): X (X = MPC@4 ≤ 5 μg/mL)
AZT MPC4 CMY-6 EC1010 (EC1010 CMY-6): Y (Y = 5 μg/mL < MPC@4 ≤ 20 μg/mL)
AZT MPC4 SHV-12 KP1010 (KP1010 SHV-12): X (X = MPC@4 ≤ 5 μg/mL)
AZT MPC4 CTX-M-15 KP1009 (KP1009 CTX-M-15): Y (Y = 5 μg/mL < MPC@4 ≤ 20 μg/mL)
TIG MPC4 CTX-M-14 KP1005 (KP1005 CTX-M-14): Z (Z = MPC@4 > 20 μg/mL)

CS(=O)(=O)c1ccc2c(c1C(=O)O)OB(O)CC2 [Compound 39, 2-Hydroxy-7-methylsulfonyl-3,4-dihydro-1,2-benzoxaborinine-8-carboxylic acid]
BPM MPC1 KP1004 KPC-2 (KP1004 KPC-2 [1]): X (X = MPC@1 ≤ 5 μg/mL)
BPM MPC1 OXA-48 KP1086 (KP1086 OXA-48): X (X = MPC@1 ≤ 5 μg/mL)
MPM MPC8 AB1053 OXA-72 (AB1053 OXA-72): X (X = MPC@1 ≤ 5 μg/mL)
MPM MPC8 AB1054 OXA-23 (AB1054 OXA-23): X (X = MPC@1 ≤ 5 μg/mL)
Ki [2]: < 100 nM
Ki (P99, NCF), uM ([3]; purified P99, nitrocefin (NCF) as reporter substrate): X (X = Ki ≤ 0.1 μM)
Ki (CTX-M-14, NCF), uM [4]: X (X = Ki ≤ 0.1 μM)
Ki (OXA-48, NCF), uM [5]: X (X = Ki ≤ 0.1 μM)
Ki (KPC-2, NCF), uM [6]: X (X = Ki ≤ 0.1 μM)
Ki ([7]; purified Pa-AmpC, nitrocefin (NCF) as reporter substrate, read-out: Ki (Pa-AmpC, NCF)): < 100 nM
AZT MPC4 ECL1002 (ECL1002): X (X = MPC@4 ≤ 5 μg/mL)
AZT MPC4 SHV-5 ec308 (ec308 SHV-5): X (X = MPC@4 ≤ 5 μg/mL)
AZT MPC4 TEM-10 ec302 (ec302 TEM-10): X (X = MPC@4 ≤ 5 μg/mL)
AZT MPC4 KPC-2 KP1004 (KP1004 KPC-2 [8]): X (X = MPC@4 ≤ 5 μg/mL)
AZT MPC4 CMY-6 EC1010 (EC1010 CMY-6): X (X = MPC@4 ≤ 5 μg/mL)
AZT MPC4 SHV-12 KP1010 (KP1010 SHV-12): X (X = MPC@4 ≤ 5 μg/mL)
AZT MPC4 CTX-M-15 KP1009 (KP1009 CTX-M-15): X (X = MPC@4 ≤ 5 μg/mL)
TIG MPC4 CTX-M-14 KP1005 (KP1005 CTX-M-14): Y (Y = 5 μg/mL < MPC@4 ≤ 20 μg/mL)
